Among the data in patent US9403830B2, “Inhibitors of leukotriene production” (Boehringer Ingelheim International GmbH, priority 2012, dated 2016) are IC50 values, retold here.

The subject of test [1] is LTB4 synthesis in human whole blood. Kind of test: human whole blood (HWB) assay, inhibition of LTB4 production. The settings on record: heparinized human whole blood, calcimycin 20 μM stimulation, plasma LTB4. In kind it is cell-based. Put shortly: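 Plasma LTB4, quantified by HTRF immunoassay, is the read-out after calcimycin challenge (20 μM final, 30 min, 37 °C) of heparinized whole blood that had been pretreated with compound for 15 min at 37 °C; values given as IC50.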

In test [2] the target is T1, human LTA4 hydrolase (Homo sapiens, UniProt P09960).
T1 sequence (P09960 1-611): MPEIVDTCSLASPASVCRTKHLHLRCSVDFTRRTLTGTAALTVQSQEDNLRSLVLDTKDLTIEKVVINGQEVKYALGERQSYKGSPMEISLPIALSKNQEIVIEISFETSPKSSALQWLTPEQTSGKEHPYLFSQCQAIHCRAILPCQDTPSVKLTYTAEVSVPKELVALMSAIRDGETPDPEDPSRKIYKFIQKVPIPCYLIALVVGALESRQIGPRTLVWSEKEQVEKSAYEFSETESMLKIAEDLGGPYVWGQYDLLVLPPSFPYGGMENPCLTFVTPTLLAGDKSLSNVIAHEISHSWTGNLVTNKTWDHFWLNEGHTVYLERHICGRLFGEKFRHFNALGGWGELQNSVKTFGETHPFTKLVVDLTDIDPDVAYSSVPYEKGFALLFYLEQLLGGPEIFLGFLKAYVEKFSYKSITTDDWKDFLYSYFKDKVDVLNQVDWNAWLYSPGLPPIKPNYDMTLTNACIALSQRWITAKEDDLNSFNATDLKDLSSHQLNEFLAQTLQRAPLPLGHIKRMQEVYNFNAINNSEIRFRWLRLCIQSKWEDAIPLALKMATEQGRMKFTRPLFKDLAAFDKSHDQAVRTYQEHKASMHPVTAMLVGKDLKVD
Kind of test: LTA4H Enzyme assay (peptidase, Arg-AMC cleavage). In kind it is biochemical. The settings on record: LTA4H enzyme 1 nM, Arg-AMC substrate 50 μM, room temperature 1 h, fluorescence 380/460 nm. The procedure, abridged:
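Human LTA4H (1 nM final) incubated with compound and Arg-AMC (50 μM final) in 50 mM Tris-HCl pH 7.5, 100 mM KCl, 0.5% BSA, 1 h at room temperature. Product read as AMC fluorescence (ex 380/em 460 nm); IC50 reported.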

On to `CC(=O)NCC1CCN(CC2Cc3ccc(Oc4ccc(-c5ccn[nH]5)cn4)cc3O2)CC1` (stereo not shown) [Example 128, N-(1-{6-[5-(2H-Pyrazol-3-yl)-pyridin-2-yloxy]-2,3-dihydro-benzofuran-2-ylmethyl}-piperidin-4-ylmethyl)-acetamide], for which the IC50 in test [1] was determined as 170 nM; in test [2], 0.74 nM.

On to `CCN(CC)Cc1nc2cc(Oc3ccc(-c4ccn[nH]4)cc3)ccc2[nH]1` [Example 152, Diethyl-{5-[4-(2H-pyrazol-3-yl)-phenoxy]-1H-benzoimidazol-2-ylmethyl}-amine], for which the IC50 is 71 nM in test [1] and 0.1 nM in test [2].

Consider `CC(=O)N[C@@H]1CCN(CCn2cc3cc(Oc4ccc(-c5ccn[nH]5)cc4)ccc3n2)C1` [Example 200, N-[(R)-1-(2-{5-[4-(2H-Pyrazol-3-yl)-phenoxy]-indazol-2-yl}-ethyl)-pyrrolidin-3-yl]-acetamide], for which the IC50 came out at 190 nM in test [1] and 0.47 nM in test [2].

Consider `c1cc(-c2ccc(Oc3ccc4c(cnn4CCN4CCCC4)c3)nc2)[nH]n1` [Example 83, 5-[5-(2H-Pyrazol-3-yl)-pyridin-2-yloxy]-1-(2-pyrrolidin-1-yl-ethyl)-1H-indazole], for which the IC50 in test [1] was 120 nM; in test [2], 0.88 nM.

As to `COC1CCN(Cc2nc3cc(Oc4ccc(-c5ccn[nH]5)cc4)ccc3[nH]2)C1` (stereo not shown) [Example 157, 2-(3-Methoxy-pyrrolidin-1-ylmethyl)-5-[4-(2H-pyrazol-3-yl)-phenoxy]-1H-benzoimidazole], the IC50 in test [1] was 98 nM; in test [2], 0.11 nM.

As for `c1cc(-c2ccc(Oc3ccc4[nH]c(CN5C[C@H]6CC[C@@H](C5)O6)nc4c3)cc2)[nH]n1` [Example 227, 3-{5-[4-(2H-Pyrazol-3-yl)-phenoxy]-1H-benzoimidazol-2-ylmethyl}-8-oxa-3-aza-bicyclo[3.2.1]octane], the IC50 in test [1] was 170 nM; in test [2], 0.054 nM.

In the case of `CCNCc1nc2cc(Oc3ccc(-c4ccn[nH]4)cc3)ccc2[nH]1` [Example 191, Ethyl-{5-[4-(2H-pyrazol-3-yl)-phenoxy]-1H-benzoimidazol-2-ylmethyl}-amine], the IC50 came out at 170 nM in test [1] and 0.18 nM in test [2].

Take `O=C(O)c1ccc(C2CCN(Cc3ccc4c(ccn4Cc4ccc(-c5ccn[nH]5)cc4)c3)CC2)cc1` [Example 124, 4-(1-{1-[4-(2H-pyrazol-3-yl)-benzyl]-1H-indol-5-ylmethyl}-piperidin-4-yl)-benzoic acid]: the IC50 is 130 nM in test [1] and 0.061 nM in test [2].

In the case of `CC(=O)N1CCN(Cc2ccc3cc(Oc4ccc(-c5ccn[nH]5)cn4)ccc3c2)CC1` [Example 2, 1-(4-{6-[5-(2H-Pyrazol-3-yl)-pyridin-2-yloxy]-naphthalen-2-ylmethyl}-piperazin-1-yl)-ethanone], the IC50 turned out to be 130 nM in test [1] and 0.39 nM in test [2].

Consider `O=C(N1CCN(Cc2ccc3cc(Oc4ccc(-c5ccn[nH]5)cc4)ccc3n2)CC1)C1(O)CC1` [Example 15, (1-hydroxy-cyclopropyl)-(4-{6-[4-(2H-pyrazol-3-yl)-phenoxy]-quinolin-2-ylmethyl}-piperazin-1-yl)-methanone], for which the IC50 in test [1] is 810 nM; in test [2], 2.4 nM.

Turning to `c1cc(-c2ccc(Oc3ccc4[nH]c(CN5CCC(CN6CCOCC6)CC5)nc4c3)cc2)[nH]n1` [Example 225, 2-(4-Morpholin-4-ylmethyl-piperidin-1-ylmethyl)-5-[4-(2H-pyrazol-3-yl)-phenoxy]-1H-benzoimidazole], the results for the IC50 in test [1] and in test [2] were 130 nM and 0.13 nM, respectively.

In the case of `c1cc(-c2ccc(Oc3ccc4nn(CCN5CCCC5)cc4c3)cc2)[nH]n1` [Example 217, 5-[4-(2H-Pyrazol-3-yl)-phenoxy]-2-(2-pyrrolidin-1-yl-ethyl)-2H-indazole], the IC50 turned out to be 81 nM in test [1] and 0.12 nM in test [2].

On to `CN(Cc1nc2cc(Oc3ccc(-c4ccn[nH]4)cc3)ccc2[nH]1)C1CCCC1` [Example 164, Cyclopentyl-methyl-{5-[4-(2H-pyrazol-3-yl)-phenoxy]-1H-benzoimidazol-2-ylmethyl}-amine], for which the IC50 in test [1] amounted to 120 nM; in test [2], 0.14 nM.

On to `CC(=O)NC1CCN(Cc2ccc3cc(Oc4ccc(-c5ccn[nH]5)cn4)ccc3c2)CC1` [Example 6, N-(1-{6-[5-(2H-Pyrazol-3-yl)-pyridin-2-yloxy]-naphthalen-2-ylmethyl}-piperidin-4-yl)-acetamide], for which the IC50 was found to be 210 nM in test [1] and 0.37 nM in test [2].

Turning to `O=C(C1CCN(CC2Cc3ccc(Oc4ccc(-c5ccn[nH]5)cc4)cc3O2)CC1)N1CCOCC1` (stereo not shown) [Example 187, Morpholin-4-yl-(1-{6-[4-(2H-pyrazol-3-yl)-phenoxy]-2,3-dihydro-benzofuran-2-ylmethyl}-piperidin-4-yl)-methanone], the IC50 amounted to 150 nM in test [1] and 0.31 nM in test [2].

Turning to `CN(Cc1nc2cc(Oc3ccc(-c4ccn[nH]4)cc3)ccc2[nH]1)[C@H]1CCOC1` [Example 77, Methyl-{5-[4-(2H-pyrazol-3-yl)-phenoxy]-1H-benzoimidazol-2-ylmethyl}-(S)-tetrahydro-furan-3-yl-amine], the IC50 in test [1] came out at 88 nM; in test [2] it was 0.099 nM.

With `O=C(CO)N1CCCN(Cc2ccc3cc(Oc4ccc(-c5ccn[nH]5)cn4)ccc3n2)CC1` [Example 140, 2-Hydroxy-1-(4-{6-[5-(2H-pyrazol-3-yl)-pyridin-2-yloxy]-quinolin-2-ylmethyl}-[1,4]diazepan-1-yl)-ethanone], the IC50 in test [1] was determined as 200 nM; in test [2], 0.93 nM.
